Measured values published in US20090028925A1, “Novel Phosphinic Acid-Containing Thyromimetics” (priority 2005, published 2009).
Where two headings read alike, the source gives them in different places.

Legend:
[1] = system: plasma cholesterol; assay: Cholesterol lowering in hypercholesterolemic rats; assay type: in vivo; conditions: for change in vivo at 0.5 mg/kg/day: Rattus norvegicus, po, read-out: % Cholesterol Lowering; for cholesterol lowering: 0.5 mg/kg/d orally
[2] = target: T1, human thyroid hormone receptors TRα1 (Homo sapiens, UniProt P10827); assay: Receptor binding to TRα1 (gel filtration and scintillation proximity assay, labeled T3)
T1 construct: made in house; host or cells: Sf9 insect cells (baculovirus)
T1 sequence (P10827 1-410 isoform P10827-2): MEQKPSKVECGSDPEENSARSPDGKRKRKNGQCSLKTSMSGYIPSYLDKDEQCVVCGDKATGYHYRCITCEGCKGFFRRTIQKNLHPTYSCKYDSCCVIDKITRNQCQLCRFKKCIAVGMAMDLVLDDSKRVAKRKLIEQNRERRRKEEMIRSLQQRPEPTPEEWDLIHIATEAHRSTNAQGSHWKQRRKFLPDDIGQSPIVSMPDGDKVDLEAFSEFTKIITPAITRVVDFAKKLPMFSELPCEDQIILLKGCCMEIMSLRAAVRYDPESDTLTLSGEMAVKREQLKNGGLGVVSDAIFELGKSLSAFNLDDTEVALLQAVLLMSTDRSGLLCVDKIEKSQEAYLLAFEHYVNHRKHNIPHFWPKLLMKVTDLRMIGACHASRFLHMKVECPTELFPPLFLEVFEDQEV
T1 sequence (P19793 1-462 partner): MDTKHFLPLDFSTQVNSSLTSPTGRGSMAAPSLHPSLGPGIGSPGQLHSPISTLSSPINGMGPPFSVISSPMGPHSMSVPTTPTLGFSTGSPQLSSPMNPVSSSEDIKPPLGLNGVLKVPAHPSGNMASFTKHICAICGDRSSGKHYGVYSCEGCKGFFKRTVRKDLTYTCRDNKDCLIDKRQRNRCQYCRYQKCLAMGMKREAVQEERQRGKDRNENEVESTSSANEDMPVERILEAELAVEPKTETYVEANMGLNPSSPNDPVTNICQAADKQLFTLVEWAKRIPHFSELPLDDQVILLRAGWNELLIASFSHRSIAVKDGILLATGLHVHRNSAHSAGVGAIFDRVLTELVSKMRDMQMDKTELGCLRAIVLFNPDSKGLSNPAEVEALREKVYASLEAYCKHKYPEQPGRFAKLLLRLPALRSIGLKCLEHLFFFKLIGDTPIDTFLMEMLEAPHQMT
Procedure: (§1) Methods: Baculoviruses expressing TRα1, TRβ1 and RXRα were generated using cDNA and other reagents from Invitrogen (Carlsbad, Calif.). To produce TR/RXR heterodimer proteins, the sf9 insect cells were first grown to a density of 1-5×10^5 cells/mL. […] and RXRα baculovirus stocks were added to the cell culture with a ratio of 1 to 1 (multiplicity of infection=10). The cells were harvested three days after the infection.
(§2) Binding of compounds to either the TRα1 or TRβ1 were also performed by means of scintillation proximity assays (SPA). The SPA assay, a common method used for the quantitation of receptor-ligand equilibria, makes use of special beads coated with a scintillant and a capture molecule, copper, which binds to the histidine-tagged α or β receptor.

[3] = target: T2, human thyroid hormone receptors TRβ1 (Homo sapiens, UniProt P10828); assay: Receptor binding to TRβ1 (gel filtration and scintillation proximity assay, labeled T3)
T2 construct: made in house; host or cells: Sf9 insect cells (baculovirus)
T2 sequence (P10828 1-461): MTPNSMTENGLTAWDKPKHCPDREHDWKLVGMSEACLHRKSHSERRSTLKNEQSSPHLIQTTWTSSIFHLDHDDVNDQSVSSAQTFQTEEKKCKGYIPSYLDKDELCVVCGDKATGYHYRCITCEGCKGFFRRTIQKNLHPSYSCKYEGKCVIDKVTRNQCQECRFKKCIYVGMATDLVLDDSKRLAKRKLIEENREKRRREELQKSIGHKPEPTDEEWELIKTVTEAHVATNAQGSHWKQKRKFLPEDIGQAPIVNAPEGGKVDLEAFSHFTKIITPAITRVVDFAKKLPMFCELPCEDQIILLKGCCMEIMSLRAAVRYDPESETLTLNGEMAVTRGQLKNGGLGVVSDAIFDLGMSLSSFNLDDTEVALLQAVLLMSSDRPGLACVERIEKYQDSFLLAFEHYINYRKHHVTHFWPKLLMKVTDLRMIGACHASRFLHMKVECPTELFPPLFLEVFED
T2 sequence (P19793 1-462 partner): T1 sequence (P19793 1-462 partner)
Procedure: as §1, §2

[4] = delivered p.o. (0.5 mg/kg/d), percentage change from pre-dose cholesterol

Ki ([2]; SPA data, read-out: Ki TRα) [µM]	Ki ([3]; SPA data, read-out: Ki TRβ) [µM]	Structure (SMILES)	change in vivo at 0.5 mg/kg/day [1, 4] [%]	other results
–	–	CCOC(=O)[C@H](C)NP(=O)(COc1cc(Cl)c(Cc2ccc(O)c(C(C)C)c2)c(Cl)c1)N[C@@H](C)C(=O)OCC [Compound 15-7]	–	% Cholesterol Lowering [1, 4]: −29.1%
–	–	CCOP(=O)(Cc1cc(Br)c(Oc2ccc(O)c(C(C)C)c2)c(Br)c1)OCC [Compound 19-1, diethyl[3,5-dibromo-4-(4′-hydroxy-3′-iso-propylphenoxy)]benzylphosphonate]	–	change in vivo at 0.5 mg/kg/day [1]: -6.6%; cholesterol lowering ([1]; hypercholesterolemic rats): failed to demonstrate cholesterol lowering
–	–	CC(C)c1cc(Oc2c(Cl)c(F)nc(NCP(=O)(OCOC(=O)C(C)(C)C)OCOC(=O)C(C)(C)C)c2Cl)ccc1O [Compound 12-9]	–	efficacy in lowering cholesterol ([1]; another experiment, hypercholesterolemic rats): not efficacious
–	–	CC(C)c1cc(Oc2c(Br)cc(CP(=O)(OCOC(=O)C(C)(C)C)OCOC(=O)C(C)(C)C)cc2Br)ccc1O [Compound 12-5, Di-(pivaloyloxymethyl)[3,5-dibromo-4-(4′-hydroxy-3′-iso-propylphenoxy)benzyl]phosphonate]	-32.5	cholesterol lowering ([1]; hypercholesterolemic rats): demonstrated a significant lowering of cholesterol
–	–	CC(C)c1cc(Cc2c(Cl)cc(OCP(=O)(OCOC(=O)C(C)(C)C)OCOC(=O)C(C)(C)C)cc2Cl)ccc1O [Compound 12-8, Di(pivaloyloxymethyl)[3,5-dichloro-4-(4′-hydroxy-3′-iso-propylbenzyl)phenoxy]methylphosphonate]	-33.7	–
–	–	CCOC(=O)[C@H](C)NP(=O)(COc1cc(I)c(Oc2ccc(O)c(C(C)C)c2)c(I)c1)N[C@@H](C)C(=O)OCC [Compound 15-8]	-31.1	–
–	–	CCC(C)c1cc(Cc2c(C)cc(OCP(=O)(OCOC(=O)C(C)(C)C)OCOC(=O)C(C)(C)C)cc2C)ccc1O (centres unmarked) [Compound 12-4, Di-(pivaloyloxymethyl)[3,5-dimethyl-4-(4′-hydroxy-3′-sec-butylbenzyl)phenoxy]methylphosphonate]	-30.5	–
–	–	CCC(C)c1cc(Cc2c(C)cc(OC[P@@]3(=O)OCC[C@@H](c4cccc(Cl)c4)O3)cc2C)ccc1O (stereo partly drawn) [Compound 13-8, Cis-(S)-2-[(3,5-dimethyl-4-(4′-hydroxy-3′-sec-butylbenzyl)phenoxy)methyl]-4-(3-chlorophenyl)-2-oxo-2λ^5-[1,3,2]-dioxaphosphonane]	-26.5	–
–	–	CC(C)c1cc(Oc2c(I)cc(OCP(=O)(OCOC(=O)C(C)(C)C)OCOC(=O)C(C)(C)C)cc2I)ccc1O [Compound 12-7, Di(pivaloyloxymethyl)[3,5-diiodo-4-(4′-hydroxy-3′-iso-propylphenoxy)phenoxy]methylphosphonate]	–	% Cholesterol Lowering [1, 4]: −39.1%
–	–	CC(C)c1cc(Cc2c(Cl)cc(OC[P@@]3(=O)OCC[C@@H](c4cccc(Cl)c4)O3)cc2Cl)ccc1O (relative stereo) [Compound 13-11, Cis(S)-2-[(3,5-dichloro-4-(4′-hydroxy-3′-iso-propylbenzyl)phenoxy)methyl]-4-(3-chlorophenyl)-2-oxo-2λ^5-[1,3,2]-dioxaphosphonane]	–	% Cholesterol Lowering [1, 4]: −24.8%
–	–	CCOC(=O)[C@H](C)NP(=O)(Cc1cc(Br)c(Oc2ccc(O)c(C(C)C)c2)c(Br)c1)N[C@@H](C)C(=O)OCC [Compound 15-5, di-N-(L-1-ethoxycarbonylethylamino)[3,5-dibromo-4-(4′-hydroxy-3′-iso-propylphenoxy)benzyl]phosphonamide]	-29.9	cholesterol lowering ([1]; hypercholesterolemic rats): demonstrated a significant lowering of cholesterol
–	–	Cc1cc(OCP(=O)(O)O)cc(C)c1C(=O)c1ccc(O)c(C(C)C)c1 [Compound 25, [3,5-dimethyl-4-(3′-iso-propyl-4′-hydroxybenzoyl)phenoxy]methylphosphonic acid]	–	Ki [2]: > 2 µM; Ki [3]: 0.363 µM
–	–	CC(C)c1cc(Oc2c(Br)cc(C[P@@]3(=O)OCC[C@@H](c4cccc(Cl)c4)O3)cc2Br)ccc1O [Compound 13-9, Cis-(S)-2-[3,5-dibromo-4-(4′-hydroxy-3′-iso-propylphenoxy)benzyl]-4-(3-chlorophenyl)-2-oxo2λ^5-[1,3,2]-dioxaphosphonane]	-10.9	cholesterol lowering ([1]; hypercholesterolemic rats): failed to demonstrate cholesterol lowering
> 2	> 2	O=P(O)(O)Cc1cc(Cl)c(Oc2ccc(O)c(S(=O)(=O)N[C@@H]3C[C@H]4CC[C@@H]3C4)c2)c(Cl)c1 (relative stereo) [Compound 10, 3,5-dichloro-4-[4′-hydroxy-3′-(N-exo-2-norbornylsulfonamido)phenoxy]benzylphosphonic acid]	–	–
1.35	0.469	Cc1cc(OC[P@]2(=O)OCC[C@@H](c3cccc(Br)c3)O2)cc(C)c1Cc1ccc(O)c(C(C)C)c1 [Compound 13-2-trans, 2-[(3,5-dimethyl-4-(4′-hydroxy-3′-iso-propylbenzyl)phenoxy)methyl]-4-(3-bromophenyl)-2-oxo-2λ^5-[1,3,2]-diox aphosphonane]	–	–
> 2	> 2	COc1ccc(Oc2c(C)cc(CCP(=O)(O)O)cc2C)cc1C(C)C [Compound 30, 2-[3,5-dimethyl-4-(3′-iso-propyl-4′-methoxyphenoxy)phenyl]ethylphosphonic acid]	–	–
1.53	1.57	Cc1cc(OC[P@]2(=O)OCC[C@@H](c3ccc(Cl)cc3)O2)cc(C)c1Cc1ccc(O)c(C(C)C)c1 [Compound 13-6-trans, 2-[(3,5-dimethyl-4-(4′-hydroxy-3′-iso-propylbenzyl)phenoxy)methyl]-4-(4-chlorophenyl)-2-oxo-2λ^5-[1,3,2]-dioxaphosphonane]	–	–
2.13	1.81	Cc1cc(OC[P@]2(=O)OCC[C@@H](c3cccnc3)O2)cc(C)c1Cc1ccc(O)c(C(C)C)c1 [Compound 13-4-trans, 2-[(3,5-dimethyl-4-(4′-hydroxy-3′-iso-propylbenzyl)phenoxy)methyl]-4-(pyrid-3-yl)-2-oxo-2λ^5-[1,3,2]-dioxaphosphonane]	–	–
–	–	Cc1cc(NC(=O)P(=O)(O)O)cc(C)c1Oc1ccc(O)c(C(C)C)c1 [Compound 1, N-[3,5-dimethyl-4-(3′-iso-propyl-4′-hydroxyphenoxy)]carbamoylphosphonic acid]	–	Ki ([2]; read-out: Ki TRα): 0.285 µM; Ki ([3]; read-out: Ki TRβ): 0.0361 µM
0.354	0.281	Cc1cc(OC[P@]2(=O)OCC[C@@H](c3ccncc3)O2)cc(C)c1Cc1ccc(O)c(C(C)C)c1 [Compound 13-5-trans, 2-[(3,5-dimethyl-4-(4′-hydroxy-3′-iso-propylbenzyl)phenoxy)methyl]-4-(pyrid-4-yl)-2-oxo-2λ^5-[1,3,2]-dioxaphosphonane]	–	–
1.74	1.32	Cc1cc(OC[P@]2(=O)OCC[C@@H](c3cccc(Cl)c3)O2)cc(C)c1Cc1ccc(O)c(C(C)C)c1 [Compound 13-1-trans, (S)-2-[(3,5-dimethyl-4-(4′-hydroxy-3′-iso-propylbenzyl)phenoxy)methyl]-4-(3-chlorophenyl)-2-oxo-2λ^5-[1,3,2]-dioxaphosphonane]	–	–
1.55	3.8	Cc1cc(OC[P@]2(=O)OCC[C@@H](c3cc(Cl)cc(Cl)c3)O2)cc(C)c1Cc1ccc(O)c(C(C)C)c1 [Compound 13-7-trans]	–	–
0.35	0.204	O=P(O)(O)Cc1cc(Cl)c(Oc2ccc(O)c(S(=O)(=O)N3CCCCC3)c2)c(Cl)c1 [Compound 9, 3,5-dichloro-4-[4′-hydroxy-3′-(N-piperidinylsulfonamido)phenoxy]benzylphosphonic acid]	–	–
